Experimental data from US20230390315A1, “COMPOSITIONS AND METHODS FOR TREATING ISCHEMIC CONDITIONS” (The Regents of the University of California, priority 2020, published 2023).

Legend:
[1] = system: JNK/c-Jun; test: Western blot of JNK pathway activation in BCECs; assay type: cell-based, bovine; settings: media without growth factors
Description: (§1) Cells were allowed to reach 80% confluency in 12-well plates. […] At various time points, plates were taken out of the incubator and kept on ice. Cell monolayers were first washed once with ice-cold PBS before lysis with 250 μl of Pierce RIPA buffer (ThermoFisher Scientific, Rockford, IL) or use 50 mM Tris-HCl (pH 7.6), 150 mM NaCl, 10% Glycerol, 1% NP-40 containing protease/Phosphatase inhibitor cocktail (100×) (Cell signaling, #5872). Lysates were collected and mixed with 4×Bolt LDS Sample Buffer (Novex, Carlsbad, CA) in the presence of Halt protease inhibitors and phosphatase inhibitor cocktail (ThermoFisher scientific, #NP0007). The samples were subjected to SDS-PAGE (Bolt 4-12% Bis-Tris Plus, Invitrogen) using Bolt MES SDS running buffer or NuPAGE 3-8% Tris-Acetate gel using Tris-Acetate SDS running buffer (Novex). HUVECs (passage 6-8) were plated in EBM-2 basal medium (Lonza) with 0.2% FBS. […] Equal amounts of protein lysates were analyzed by SDS-PAGE and blotted with the indicated antibodies. Proteins were transferred using Tris-Glycine buffer with 20% Methanol (Proteonomics grade) (Apex BioResearch Products). Membranes were first incubated with 5% milk in TBST, pH 7.6 (TEKnova, Hollister, CA), followed by blotting with primary and secondary antibodies. ECL anti-rabbit IgG, horseradish peroxidase linked whole antibody from donkey or sheep anti-mouse were obtained from GE Healthcare (UK limited). SuperSignal West Dura Extended Duration substrate was from ThermoFisher Scientific. In some cases, the same PVDF membranes were stripped by 8-min incubation in the Restore Plus Western Blot Stripping Buffer (ThermoFisher Scientific) to show total specific protein expression, followed by second stripping for β-actin expression.

[2] = system: bovine choroidal microvascular endothelial cells (BCEC); test: BCEC proliferation assay; assay type: cell-based
Description: Proliferation assays with BCECs and BRECs were performed. Log-phase growing BCECs or BRECs (passage <10) were trypsinized, re-suspended and seeded in 96-well plates (no coating) in low-glucose DMEM supplemented with 10% bovine calf serum, 2 mM glutamine, and antibiotics (growth medium), at a density of 1200-1500 cells per well in 200 μl volume. All reagents were added at the indicated final concentrations. […] Fluorescence was measured at 530 nm excitation wavelength and 590 nm emission wavelength. The experiments were repeated at least three times. […] On each 96-well plate, untreated and VEGF-treated (10/ng/ml) wells were included to monitor plate-to-plate variations. 20% methanol or 0.05% DMSO served as negative controls. 0.05% DMSO served as negative controls when Cas was tested in these cells. Human […] and human adult […] were split into Gelatin-coated 96 wells (2000 cells per well) in low glucose DMEM containing 10% FBS. 1200 cells/well was set up for proliferation assay in low glucose media containing FBS. […] HUVEC (p7-10) were grown on gelatin-coated plate until it reached 70-80% confluency. On the day of the assay, cells were dissociated with 0.05% trypsin, which was neutralized with 0.5% FBS-containing EBM. Cells were briefly spun and then re-suspended in 0.5% FBS-media. Cells were counted and plated in 96-well, 1000 cells/well. Triplicate wells were used for each treatment. Data were collected at day 3, and then cells were fixed in 4% paraformaldehyde for 15 min before adding crystal violet. Cell-covered areas were quantified after taking pictures by Image J software.

[3] = system: VEGFR2; test: Western blot of VEGFR2 molecular mass in BCECs and BRECs; assay type: cell-based, bovine
Description: Glycerol-free PNGase F was obtained from New England Biolabs (Ipswich, MA). Briefly, BCECs were lysed with NP-40 containing proteinase inhibitors (Thermo Scientific, Waltham, MA). Lysates were cleared at 4° C. at 5000 g for 25 mins. Total protein content was measured using Pierce BCA protein assay kit (ThermoScientific). […] of protein was mixed with 10× denaturing buffer and H2O to a total volume of […]. Glycoproteins were denatured at 100° C. for 10 mins, followed by adding Glycobuffer and PNGase F. The reaction was carried out at 37° C. for 2 hr.
as §1, with “˜80%” for “80%”

[4] = system: BCEC confluent monolayers; test: BCEC scratch assay; assay type: cell-based, bovine
Description: BCECs (passage 6-10) and HUVEC (passage 6-8) were used in this assay. Cells were grown until about 80% confluency in 6-well plates, washed twice with PBS and then starved in serum-free DMEM (low Glucose, Hyclone) for 5 hrs before making a “scratch” using 1 ml tip. Cell monolayers were briefly washed once with serum-free media, followed by various treatments in media containing 1% FBS. 48 hrs later, the assay was stopped by adding 2 ml 4% paraformaldehyde. 20 min later, fixed cells were stained with 1 ml Crystal Violet (Sigma). Plates were washed gently under the running tap water and air-dried before taking pictures. Images were acquired by ZEISS Discovery […] microscopy equipped with […] camera. Quantification of wound closure was done using AxioVision LE Rel.4.4 software. Six images were taken for each sample and six measurements (in pixel) were made on each image using AxioVision LE Rel.4.4 software.

O=C1N[C@@H]2[C@@H](O)[C@@H](O)[C@H](O)[C@@H](CO)N2C1=O [Kif, Kifunensine, reference compound]
activation of JNK pathway (JNK and downstream c-Jun) [1]: able to activate the JNK pathway
BCEC proliferation with N-glycosylation inhibitors ([2]; absence or presence of 5 ng/ml VEGF): stimulated in a dose-dependent fashion
VEGFR2 molecular mass after glycosylation inhibitor treatment ([3]; 24 hours, SDS-PAGE): reduction in VEGFR2 molecular mass
activity of glycosylation inhibitors in BCEC scratch assay ([4]; over 48 hours relative to control): significant activity

N[C@H](C=O)[C@@H](O)[C@H](O)[C@H](O)CO [ManN, 2-Amino-2-deoxy-D-mannose]
activation of JNK pathway (JNK and downstream c-Jun) [1]: significantly activated
dose range with significant stimulatory effects [2]: 5 to 500 µM
additivity with VEGF in promoting BCEC proliferation ([2]; 5 ng/ml VEGF): additive with VEGF
additivity with bFGF in promoting BCEC proliferation ([2]; 20 ng/ml bFGF): Additive effects
fold increase in fluorescence units upon AlamarBlue addition ([2]; 50 uM ManN and 5 ng/ml VEGF, compared to VEGF alone): 2.5-3 fold
maximal fold increase in EC-covered surface ([2]; ManN at 50 uM alone, crystal violet, FIG. 1A): ~6.5 fold
dependence of VEGFR2 mass decrease and BCEC proliferation stimulation on VEGFR2 signaling ([2]; experiments with VEGFR2 inhibitor axitinib): not dependent on VEGFR2 signaling
additivity between ManN and VEGF in glucose-free media ([2]; glucose-free media): abolished
concentration with significant cytotoxicity ([2]; glucose-free media, even in the presence of VEGF): 4 µM
dose-response of effects on BCEC proliferation ([2]; with or without VEGF): bell-shaped dose-response curve, with inhibition at higher concentrations
duration of ManN effects on protein mass in the absence of exogenous ManN ([3]; BCECs): at least 8 hours
concentration at which VEGFR2 molecular mass shift starts ([3]; BCECs and BRECs): 40 µM
effect on apparent molecular mass of VEGFR2 ([3]; BCECs and BRECs): shifted significantly
new lower molecular weight VEGFR2 bands ([3]; BCECs, control major band ~230 KDa, minor ~210 KDa): 170-200 KDa
extent of loss of VEGFR2 glycosylation (PNGase F treatment) ([3]; ManN at uM concentrations): not all the glycosylation on VEGFR2 was abolished
reversibility of effects on VEGFR2 molecular mass after ManN removal ([3]; after 24 hours): completely reverse
closure of the scratched area compared to control ([4]; 40 uM ManN or 50 ng/ml of VEGF, after 48 hours): significantly accelerated
additivity of ManN and VEGF in scratch assay ([4]; both ManN and VEGF): additivity was observed
